According to US20250179027A1, “CYCLOALKYL OR HETEROCYCLYL SUBSTITUTED HETEROARYL COMPOUND, AND COMPOSITION AND USE THEREOF” (Shenzhen TargetRx, Inc., priority 2022, published 2025):

What was measured:
Type in all cases: biochemical
Conditions in all cases: HTRF TK kit
[1] = target: T1, BTK kinase (Homo sapiens, UniProt Q06187); test: HTRF kinase activity inhibition assay, BTK
T1 construct: purchased Invitrogen PV3587
Source text: (§1) In this assay, the HTRF TK Kit (Catalog No. 62TKOPEC) provided by Cisbio was used to detect the inhibitory activity of compounds on BTK kinase and BTK C481S kinase and the selectivity of compounds relative to EGFR, ITK and TEC kinases.
(§2) Reagents and consumables: BTK kinase (Invitrogen, Catalog No. PV3587), BTK C481S (Carna, Product No. 08-547), ITK (Carna, Product No. 08-181), EGFR (Carna, Product No. 08-115), TEC (Carna, Product No. 08-182), HTRF-TK kit (Cisbio, Product No. 62TKOPEC), MgCl2 (Sigma, Product No. M1028), MnCl2 (Sigma, Product No. M1787), DTT (Sigma, Product No. D0632), ATP (Sigma, Product No. A7699-1 g), DMSO (Sigma, Product No. D2650), 384-well plate (PE, Product No. 6008280).
(§3) The entire operation steps were carried out on ice, and the total reaction volume was 10 μL. The compound (4 μL), substrate and ATP (4 μL), kinase (2 μL) were added in sequence to a 384-well plate, and shaked for 30 seconds. After an appropriate time at room temperature, the detection reagent was added. After 1 hour at room temperature, the plate was detected with a microplate reader. The specific steps were as follows: • a) 1× kinase buffer solution required for kinase detection was calculated according to the amount of the detection compound, and prepared as needed; • b) compounds with 2.5×working concentration were prepared, the 100 times gradient concentration solution of compounds was diluted by 4 μL to the desired concentration, mixed well, and added to each well at 4 μL per well; • c) 5×working concentration of substrate and ATP were prepared, mixed in a ratio of 1:1 before adding to a 384-well plate, and added to each well at 4 μL per well; • d) 5×working concentration of kinase was prepared, and 2 μL was added to each well; • e) the plate was shaked on a microplate oscillator for 30 seconds, sealed with a sealing membrane, and reacted at room temperature for an appropriate time; • f) 4×working concentrations of streptavidin XL-665 and TK antibody-cryptate compound were prepared, mixed in a ratio of 1:1 before adding to a 384-well plate, and added to each well at 10 μL per well; • g) the plate was read after reacting at room temperature for 1 hour; • h) the wells with only substrate, ATP and 1% DMSO added but no kinase were blank control wells, and the wells with only substrate, ATP, 1% DMSO and kinase were positive control wells.
(§4) Readings: The values of 620 nm (cryptate) and 665 nm (XL665) were read with a BioTek Synerg Neo2 microplate reader, the ratio of 665/620 per well was calculated, and the data were exported. Data analysis: IC50 was calculated using GraphPad Prism 7.0 software. The following nonlinear fitting formula was used to obtain the IC50 (half inhibitory concentration) of compounds:
(§5) [formula] • X: Compound concentration log value • Y: Inhibition rate (% inhibition)
(§6) The kinase inhibition rate (% inhibition rate) was calculated as: […]

[2] = target: T2, BTK C481S kinase (Homo sapiens, UniProt Q06187, C481S); test: HTRF kinase activity inhibition assay, BTK C481S
T2 construct: purchased Carna 08-547
Source text: as §1, §2, §3, §4, §5, §6

[3] = target: T3, EGFR (Homo sapiens, UniProt P00533); test: HTRF kinase activity inhibition assay, EGFR
T3 construct: purchased Carna 08-115
Source text: as §1, §2, §3, §4, §5, §6

[4] = target: T4, ITK (Homo sapiens, UniProt Q08881); test: HTRF kinase activity inhibition assay, ITK
T4 construct: purchased Carna 08-181
T4 sequence (Q08881 1-620): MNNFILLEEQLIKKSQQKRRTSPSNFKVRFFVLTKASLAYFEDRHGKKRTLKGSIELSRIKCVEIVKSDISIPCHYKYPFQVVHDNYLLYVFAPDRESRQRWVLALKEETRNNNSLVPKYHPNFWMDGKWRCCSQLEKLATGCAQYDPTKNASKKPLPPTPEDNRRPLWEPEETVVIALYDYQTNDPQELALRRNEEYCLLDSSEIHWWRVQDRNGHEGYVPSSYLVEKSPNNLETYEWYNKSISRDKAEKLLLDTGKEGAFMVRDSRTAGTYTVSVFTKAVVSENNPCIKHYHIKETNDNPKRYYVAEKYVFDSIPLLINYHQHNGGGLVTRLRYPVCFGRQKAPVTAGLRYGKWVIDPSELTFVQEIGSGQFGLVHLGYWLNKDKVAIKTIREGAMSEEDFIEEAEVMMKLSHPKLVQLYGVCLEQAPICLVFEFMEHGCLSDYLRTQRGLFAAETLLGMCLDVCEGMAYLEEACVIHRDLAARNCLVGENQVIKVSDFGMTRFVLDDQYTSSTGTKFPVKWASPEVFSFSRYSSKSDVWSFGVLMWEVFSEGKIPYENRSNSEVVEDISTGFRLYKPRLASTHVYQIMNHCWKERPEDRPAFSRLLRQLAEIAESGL
Source text: as §1, §2, §3, §4, §5, §6

[5] = target: T5, TEC (Homo sapiens, UniProt P42680); test: HTRF kinase activity inhibition assay, TEC
T5 construct: purchased Carna 08-182
T5 sequence (P42680 1-631): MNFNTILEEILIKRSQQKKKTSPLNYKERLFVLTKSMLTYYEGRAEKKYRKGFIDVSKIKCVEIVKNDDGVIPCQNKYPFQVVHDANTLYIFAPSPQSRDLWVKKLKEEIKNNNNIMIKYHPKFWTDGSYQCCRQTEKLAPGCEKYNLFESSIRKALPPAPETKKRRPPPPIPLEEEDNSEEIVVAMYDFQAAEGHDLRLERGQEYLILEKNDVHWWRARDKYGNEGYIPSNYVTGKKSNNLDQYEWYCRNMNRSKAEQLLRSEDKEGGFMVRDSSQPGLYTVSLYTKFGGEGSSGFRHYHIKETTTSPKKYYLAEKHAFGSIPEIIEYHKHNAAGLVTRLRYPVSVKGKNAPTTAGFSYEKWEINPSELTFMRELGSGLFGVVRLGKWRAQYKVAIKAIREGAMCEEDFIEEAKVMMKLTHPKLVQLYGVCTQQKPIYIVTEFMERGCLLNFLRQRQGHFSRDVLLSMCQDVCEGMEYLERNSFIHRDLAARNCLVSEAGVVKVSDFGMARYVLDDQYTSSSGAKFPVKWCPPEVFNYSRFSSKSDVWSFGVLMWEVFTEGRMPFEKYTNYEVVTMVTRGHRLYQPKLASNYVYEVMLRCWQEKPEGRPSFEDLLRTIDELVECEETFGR
Source text: as §1, §2, §3, §4, §5, §6

T2 sequence (Q06187 whole entry C481S): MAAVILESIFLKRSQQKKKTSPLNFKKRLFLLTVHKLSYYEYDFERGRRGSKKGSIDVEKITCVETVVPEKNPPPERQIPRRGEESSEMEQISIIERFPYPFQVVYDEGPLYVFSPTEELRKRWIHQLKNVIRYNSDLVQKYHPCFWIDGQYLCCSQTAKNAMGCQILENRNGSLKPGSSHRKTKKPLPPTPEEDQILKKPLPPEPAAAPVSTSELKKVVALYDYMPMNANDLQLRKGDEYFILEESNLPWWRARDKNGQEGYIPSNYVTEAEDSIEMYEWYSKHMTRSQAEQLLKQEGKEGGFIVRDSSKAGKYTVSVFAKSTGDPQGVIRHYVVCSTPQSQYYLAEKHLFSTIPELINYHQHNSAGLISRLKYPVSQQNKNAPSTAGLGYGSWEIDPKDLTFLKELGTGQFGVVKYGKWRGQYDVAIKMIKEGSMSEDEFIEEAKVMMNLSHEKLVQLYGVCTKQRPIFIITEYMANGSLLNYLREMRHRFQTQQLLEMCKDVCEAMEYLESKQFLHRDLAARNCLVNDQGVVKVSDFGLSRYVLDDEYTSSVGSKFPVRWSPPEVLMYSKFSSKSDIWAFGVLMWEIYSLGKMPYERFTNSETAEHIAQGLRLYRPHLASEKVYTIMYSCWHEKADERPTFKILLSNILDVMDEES
T3 sequence (P00533 669-1210 limits assumed): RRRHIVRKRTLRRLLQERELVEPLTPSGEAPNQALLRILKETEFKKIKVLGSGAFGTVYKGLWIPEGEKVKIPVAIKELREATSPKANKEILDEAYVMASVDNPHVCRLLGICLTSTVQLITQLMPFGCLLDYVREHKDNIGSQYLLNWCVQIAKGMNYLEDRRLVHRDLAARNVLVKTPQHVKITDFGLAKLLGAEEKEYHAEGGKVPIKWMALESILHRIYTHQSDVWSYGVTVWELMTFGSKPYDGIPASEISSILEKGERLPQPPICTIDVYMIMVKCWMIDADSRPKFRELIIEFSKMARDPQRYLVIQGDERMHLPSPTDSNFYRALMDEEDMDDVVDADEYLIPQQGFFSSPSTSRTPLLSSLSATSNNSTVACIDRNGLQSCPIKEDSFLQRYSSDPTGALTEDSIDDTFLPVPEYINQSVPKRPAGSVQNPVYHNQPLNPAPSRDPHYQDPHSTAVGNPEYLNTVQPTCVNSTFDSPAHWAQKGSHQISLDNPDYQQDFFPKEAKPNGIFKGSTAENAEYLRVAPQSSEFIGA
T1 sequence (Q06187 whole entry): as the sequence (Q06187 whole entry C481S) above, with S481C counted along it

IC50 [1] | IC50 [2] | IC50 [3] | IC50 [4] | IC50 [5] | SMILES
≤ 10 nM | ≤ 10 nM | 10 to 50 nM | > 10000 nM | 100 to 1000 nM | COc1ccc(F)cc1C(=O)NCc1ccc(-c2nc(C3CCCC(O)C3)n3ccnc(N)c23)cc1 (single isomer, unassigned) [Example 22, N-(4-(8-amino-3-(3-hydroxycyclohexanyl)imidazo[1,5-a]pyrazin-1-yl)benzyl)-5-fluoro-2-methoxybenzamide]
≤ 10 nM | ≤ 10 nM | 100 to 1000 nM | > 10000 nM | 100 to 1000 nM | COc1ccc(F)cc1C(=O)NCc1ccc(-c2nn(C3CCC(O)C3)c3ncnc(N)c23)cc1 (single isomer, unassigned) [Example 31, N-(4-(4-amino-1-(3-hydroxycyclopentanyl)-1H-pyrazolo[3,4-d]pyrimidin-3-yl)benzyl)-5-fluoro-2-methoxybenzamide]
10 to 50 nM | 10 to 50 nM | 10 to 50 nM | > 10000 nM | 1000 to 10000 nM | COc1ccc(F)cc1C(=O)NCc1ccc(-c2cc(C3CCC(CO)OC3)n3ncnc(N)c23)cc1 (single isomer, unassigned) [Example 59, N-(4-(4-amino-7-(6-(hydroxymethyl)tetrahydro-2H-pyran-3-yl)pyrrolo[2,1-f][1,2,4]triazin-5-yl)benzyl)-5-fluoro-2-methoxybenzamide]
≤ 10 nM | ≤ 10 nM | ≤ 10 nM | > 10000 nM | 100 to 1000 nM | COc1ccc(F)cc1C(=O)NCc1ccc(-c2cc(C3CCC(CO)OC3)n3ncnc(N)c23)cc1 (single isomer, unassigned) [Example 60, N-(4-(4-amino-7-(6-(hydroxymethyl)tetrahydro-2H-pyran-3-yl)pyrrolo[2,1-f][1,2,4]triazin-5-yl)benzyl)-5-fluoro-2-methoxybenzamide]
≤ 10 nM | ≤ 10 nM | 50 to 100 nM | > 10000 nM | 100 to 1000 nM | COc1ccc(F)cc1C(=O)NCc1ccc(-c2nn(C3CCC(O)CC3)c3ncnc(N)c23)cc1 [Example 29, N-(4-(4-amino-1-((1R,4R)-4-hydroxycyclohexyl)-1H-pyrazolo[3,4-d]pyrimidin-3-yl)benzyl)-5-fluoro-2-methoxybenzamide]
≤ 10 nM | ≤ 10 nM | 50 to 100 nM | > 10000 nM | 100 to 1000 nM | COc1ccc(F)cc1C(=O)NCc1ccc(-c2nn([C@H]3CC[C@@H](O)CC3)c3ncnc(N)c23)cc1 [Example 30, N-(4-(4-amino-1-((1S,4S)-4-hydroxycyclohexyl)-1H-pyrazolo[3,4-d]pyrimidin-3-yl)benzyl)-5-fluoro-2-methoxybenzamide]
≤ 10 nM | ≤ 10 nM | 10 to 50 nM | > 10000 nM | 100 to 1000 nM | COc1ccc(F)cc1C(=O)NCc1ccc(-c2nn([C@H]3CC[C@@H](CO)CC3)c3ncnc(N)c23)cc1 [Example 55, cis-N-(4-(4-amino-1-((1S,4S)-4-(hydroxymethyl)cyclohexyl)-1H-pyrazolo[3,4-d]pyrimidin-3-yl)benzyl)-5-fluoro-2-methoxybenzamide]
≤ 10 nM | ≤ 10 nM | 10 to 50 nM | > 10000 nM | 100 to 1000 nM | COc1ccc(F)cc1C(=O)NCc1ccc(-c2nn([C@H]3CC[C@H](CO)CC3)c3ncnc(N)c23)cc1 [Example 56, trans-N-(4-(4-amino-1-((1R,4R)-4-(hydroxymethyl)cyclohexyl)-1H-pyrazolo[3,4-d]pyrimidin-3-yl)benzyl)-5-fluoro-2-methoxybenzamide]

Further lines, the compound ahead of its results:

SMILES | IC50 [1] | IC50 [2] | IC50 [3] | IC50 [4] | IC50 [5]
COc1ccc(F)cc1C(=O)NCc1ccc(-c2nn(C3CCCC(O)C3)c3ncnc(N)c23)cc1 (single isomer, unassigned) [Example 5] | 10 to 50 nM | ≤ 10 nM | 50 to 100 nM | > 10000 nM | 100 to 1000 nM
COc1ccc(F)cc1C(=O)NCc1ccc(-c2nn(C3CCCC(O)C3)c3ncnc(N)c23)cc1 (single isomer, unassigned) [Example 6] | ≤ 10 nM | ≤ 10 nM | 50 to 100 nM | > 10000 nM | 100 to 1000 nM
COc1ccc(F)cc1C(=O)NCc1ccc(-c2nn(C3CCCC(O)C3)c3ncnc(N)c23)cc1 (single isomer, unassigned) [Example 7] | – | ≤ 10 nM | 100 to 1000 nM | > 10000 nM | 100 to 1000 nM
COc1ccc(F)cc1C(=O)NCc1ccc(-c2nn(C3CCCC(O)C3)c3ncnc(N)c23)cc1 (single isomer, unassigned) [Example 8] | – | 10 to 50 nM | 100 to 1000 nM | > 10000 nM | 1000 to 10000 nM
COc1ccc(F)cc1C(=O)NCc1ccc(-c2nn(C3CCC(CO)OC3)c3ncnc(N)c23)cc1 (single isomer, unassigned) [Example 18, N-(4-(4-amino-1-(6-(hydroxymethyl)tetrahydro-2H-pyran-3-yl)-1H-pyrazolo[3,4-d]pyrimidin-3-yl)benzyl)-5-fluoro-2-methoxybenzamide] | ≤ 10 nM | ≤ 10 nM | 50 to 100 nM | > 10000 nM | 100 to 1000 nM
COc1ccc(F)cc1C(=O)NCc1ccc(-c2nn(C3CCCC(O)C3)c3ncnc(N)c23)cc1 (stereo not shown) [Example 4] | ≤ 10 nM | ≤ 10 nM | 100 to 1000 nM | > 10000 nM | 100 to 1000 nM
COc1ccc(F)cc1C(=O)NCc1ccc(-c2nc(C3CCCC(O)C3)n3ccnc(N)c23)cc1 (stereo not shown) [Example 20, N-(4-(8-amino-3-(3-hydroxycyclohexanyl)imidazo[1,5-a]pyrazin-1-yl)benzyl)-5-fluoro-2-methoxybenzamide] | ≤ 10 nM | 10 to 50 nM | 10 to 50 nM | > 10000 nM | 100 to 1000 nM
